According to ChEMBL document CHEMBL5131499, “Design, synthesis and glycosidase inhibition of C-4 branched LAB and DAB derivatives” (Eur J Med Chem, 2022):

Legend:
Bos taurus [1] = species: Bos taurus; assay: Inhibition of bovine liver beta-galactosidase assessed as release of p-nitrophenol at 1000 uM using p-nitrophenyl glycoside as substrate by spectrometric assay relative to control
[2] = biological target: T1, Lysosomal alpha-glucosidase (Homo sapiens, UniProt P10253); assay: Inhibition of human lysosomal alpha glucosidase assessed as release of p-nitrophenol using p-nitrophenyl glycoside as substrate by spectrometric assay
[3] = biological target: Sucrase-isomaltase, intestinal (Rattus norvegicus, UniProt P23739); assay: Inhibition of rat intestinal sucrase assessed as release of p-nitrophenol using p-nitrophenyl glycoside as substrate by spectrometric assay
Sucrase-isomaltase, intestinal, sequence (P23739 1-1013 limits assumed): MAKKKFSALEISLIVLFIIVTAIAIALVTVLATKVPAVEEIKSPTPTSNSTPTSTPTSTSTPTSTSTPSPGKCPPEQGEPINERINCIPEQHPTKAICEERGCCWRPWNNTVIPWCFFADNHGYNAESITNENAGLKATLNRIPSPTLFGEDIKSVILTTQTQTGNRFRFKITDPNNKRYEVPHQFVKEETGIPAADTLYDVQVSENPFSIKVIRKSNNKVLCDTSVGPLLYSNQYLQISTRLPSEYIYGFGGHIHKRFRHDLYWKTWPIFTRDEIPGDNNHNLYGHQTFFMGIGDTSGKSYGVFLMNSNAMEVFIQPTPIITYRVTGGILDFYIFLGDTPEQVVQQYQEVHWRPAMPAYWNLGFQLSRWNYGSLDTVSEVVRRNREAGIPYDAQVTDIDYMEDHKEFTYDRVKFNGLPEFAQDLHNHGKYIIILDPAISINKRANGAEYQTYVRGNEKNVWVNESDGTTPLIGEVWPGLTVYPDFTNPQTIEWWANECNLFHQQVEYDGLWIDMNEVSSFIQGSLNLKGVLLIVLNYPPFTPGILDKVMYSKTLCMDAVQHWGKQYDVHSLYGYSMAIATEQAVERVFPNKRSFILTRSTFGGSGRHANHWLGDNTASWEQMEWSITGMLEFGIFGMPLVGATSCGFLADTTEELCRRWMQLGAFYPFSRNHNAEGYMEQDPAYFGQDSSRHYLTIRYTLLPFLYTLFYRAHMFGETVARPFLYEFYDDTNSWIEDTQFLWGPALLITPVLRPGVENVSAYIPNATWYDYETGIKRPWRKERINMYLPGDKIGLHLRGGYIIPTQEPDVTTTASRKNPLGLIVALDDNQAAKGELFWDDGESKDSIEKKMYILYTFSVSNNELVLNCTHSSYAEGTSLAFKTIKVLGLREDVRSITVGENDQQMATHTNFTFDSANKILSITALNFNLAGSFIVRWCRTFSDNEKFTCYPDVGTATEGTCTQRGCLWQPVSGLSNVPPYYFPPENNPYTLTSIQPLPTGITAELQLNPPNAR
Sucrase-isomaltase, intestinal, sequence (P23739 1014-1841 limits assumed): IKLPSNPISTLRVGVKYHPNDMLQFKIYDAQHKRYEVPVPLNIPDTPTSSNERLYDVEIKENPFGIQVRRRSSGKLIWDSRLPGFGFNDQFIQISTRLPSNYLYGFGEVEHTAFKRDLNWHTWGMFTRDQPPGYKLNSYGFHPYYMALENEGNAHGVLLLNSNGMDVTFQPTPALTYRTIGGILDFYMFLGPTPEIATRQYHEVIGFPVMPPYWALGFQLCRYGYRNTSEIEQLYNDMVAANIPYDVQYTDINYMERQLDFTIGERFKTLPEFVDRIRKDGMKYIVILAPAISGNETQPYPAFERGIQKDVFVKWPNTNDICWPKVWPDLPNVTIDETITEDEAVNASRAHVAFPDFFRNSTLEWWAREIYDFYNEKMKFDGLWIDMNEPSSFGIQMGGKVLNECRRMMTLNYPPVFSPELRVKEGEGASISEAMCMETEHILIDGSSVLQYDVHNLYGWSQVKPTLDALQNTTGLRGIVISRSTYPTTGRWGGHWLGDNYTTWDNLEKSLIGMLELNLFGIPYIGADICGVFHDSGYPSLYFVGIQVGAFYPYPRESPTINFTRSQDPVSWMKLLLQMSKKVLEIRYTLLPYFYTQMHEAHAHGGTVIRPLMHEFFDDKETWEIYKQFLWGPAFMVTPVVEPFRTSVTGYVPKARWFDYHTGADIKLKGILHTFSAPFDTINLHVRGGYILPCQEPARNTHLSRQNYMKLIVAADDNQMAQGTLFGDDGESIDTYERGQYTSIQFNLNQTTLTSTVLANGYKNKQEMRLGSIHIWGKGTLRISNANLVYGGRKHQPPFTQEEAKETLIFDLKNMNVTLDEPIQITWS

Rattus norvegicus = species: Rattus norvegicus; assay: Inhibition of rat intestinal alpha-trehalase assessed as release of p-nitrophenol at 1000 uM using p-nitrophenyl glycoside as substrate by spectrometric assay relative to control
[4] = biological target: T2, Alpha-mannosidase (Canavalia ensiformis) (UniProt C0HJB3); assay: Inhibition of jack bean alpha-mannosidase assessed as release of p-nitrophenol at 1000 uM using p-nitrophenyl glycoside as substrate by spectrometric assay relative to control
T2 sequence (whole entry): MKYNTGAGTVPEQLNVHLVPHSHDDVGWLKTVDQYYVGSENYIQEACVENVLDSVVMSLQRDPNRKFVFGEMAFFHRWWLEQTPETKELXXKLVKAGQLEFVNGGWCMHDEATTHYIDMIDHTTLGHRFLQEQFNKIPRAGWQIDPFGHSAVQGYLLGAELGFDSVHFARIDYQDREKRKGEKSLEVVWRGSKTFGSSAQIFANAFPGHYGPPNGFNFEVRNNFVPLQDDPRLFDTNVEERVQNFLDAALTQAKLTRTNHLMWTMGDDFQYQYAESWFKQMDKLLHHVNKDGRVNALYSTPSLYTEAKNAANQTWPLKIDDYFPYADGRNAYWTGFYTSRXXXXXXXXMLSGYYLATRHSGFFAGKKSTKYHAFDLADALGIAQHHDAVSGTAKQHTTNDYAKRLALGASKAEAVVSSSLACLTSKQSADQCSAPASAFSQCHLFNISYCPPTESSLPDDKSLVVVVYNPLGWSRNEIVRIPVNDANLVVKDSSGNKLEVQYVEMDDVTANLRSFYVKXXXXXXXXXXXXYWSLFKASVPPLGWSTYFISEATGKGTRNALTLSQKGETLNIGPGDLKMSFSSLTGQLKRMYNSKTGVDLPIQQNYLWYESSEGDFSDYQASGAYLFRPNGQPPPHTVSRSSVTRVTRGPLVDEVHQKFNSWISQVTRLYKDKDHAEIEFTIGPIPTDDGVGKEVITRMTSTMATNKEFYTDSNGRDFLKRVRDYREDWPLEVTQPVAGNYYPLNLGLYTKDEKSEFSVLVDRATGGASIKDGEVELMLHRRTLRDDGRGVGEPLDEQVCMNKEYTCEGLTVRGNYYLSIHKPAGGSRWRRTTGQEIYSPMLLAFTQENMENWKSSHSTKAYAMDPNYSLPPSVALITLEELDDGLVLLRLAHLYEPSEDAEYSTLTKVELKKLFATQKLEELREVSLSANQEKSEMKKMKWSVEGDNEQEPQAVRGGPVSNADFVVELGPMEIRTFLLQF

[5] = Inhibition of yeast alpha-glucosidase assessed as release of p-nitrophenol using p-nitrophenyl glycoside as substrate by spectrometric assay; design: species or system Saccharomyces cerevisiae
[6] = Inhibition of rice alpha-glucosidase assessed as release of p-nitrophenol using p-nitrophenyl glycoside as substrate by spectrometric assay; design: species or system Oryza sativa
Helix pomatia = assay: Inhibition of snail beta-mannosidase assessed as release of p-nitrophenol at 1000 uM using p-nitrophenyl glycoside as substrate by spectrometric assay relative control
Sus scrofa = species: Sus scrofa; assay: Inhibition of porcine kidney alpha-trehalase assessed as release of p-nitrophenol at 1000 uM using p-nitrophenyl glycoside as substrate by spectrometric assay relative to control
Escherichia coli = assay: Inhibition of Escherichia coli beta-glucuronidase assessed as release of p-nitrophenol at 1000 uM using p-nitrophenyl glycoside as substrate by spectrometric assay relative to control
Bos taurus [7] = species: Bos taurus; assay: Inhibition of bovine liver beta-glucosidase assessed as release of p-nitrophenol at 1000 uM using p-nitrophenyl glycoside as substrate by spectrometric assay relative to control
Prunus dulcis = assay: Inhibition of almond beta-glucosidase assessed as release of p-nitrophenol at 1000 uM using p-nitrophenyl glycoside as substrate by spectrometric assay relative to control
Bos taurus [8] = species: Bos taurus; assay: Inhibition of bovine liver beta-glucronidase assessed as release of p-nitrophenol at 1000 uM using p-nitrophenyl glycoside as substrate by spectrometric assay relative to control
[9] = biological target: T3, Tissue alpha-L-fucosidase (Bos taurus) (UniProt Q2KIM0); assay: Inhibition of bovine kidney alpha-L-fucosidase assessed as release of p-nitrophenol at 1000 uM using p-nitrophenyl glycoside as substrate by spectrometric assay relative to control
T3 sequence (whole entry): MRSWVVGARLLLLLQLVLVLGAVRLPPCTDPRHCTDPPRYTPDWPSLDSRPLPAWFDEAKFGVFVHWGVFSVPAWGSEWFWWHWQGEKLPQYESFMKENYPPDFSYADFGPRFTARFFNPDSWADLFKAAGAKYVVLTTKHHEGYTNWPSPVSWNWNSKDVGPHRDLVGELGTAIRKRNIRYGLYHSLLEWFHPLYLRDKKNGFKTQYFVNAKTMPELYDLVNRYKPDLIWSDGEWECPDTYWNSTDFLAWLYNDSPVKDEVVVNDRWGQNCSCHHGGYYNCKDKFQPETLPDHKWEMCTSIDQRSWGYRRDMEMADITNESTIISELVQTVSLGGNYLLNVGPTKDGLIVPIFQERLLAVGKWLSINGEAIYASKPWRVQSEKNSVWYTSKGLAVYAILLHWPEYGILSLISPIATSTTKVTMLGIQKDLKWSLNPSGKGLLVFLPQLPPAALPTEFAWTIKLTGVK

Aspergillus niger = assay: Inhibition of Aspergillus niger amyloglucosidase assessed as release of p-nitrophenol at 1000 uM using p-nitrophenyl glycoside as substrate by spectrometric assay relative to control
Penicillium decumbens = assay: Inhibition of Penicillium decumbens alpha-L-rhamnosidase assessed as release of p-nitrophenol at 1000 uM using p-nitrophenyl glycoside as substrate by spectrometric assay relative to control
Oryza sativa = assay: Inhibition of rice alpha-glucosidase assessed as release of p-nitrophenol at 1000 uM using p-nitrophenyl glycoside as substrate by spectrometric assay relative to control
[10] = biological target: T1, Lysosomal alpha-glucosidase; assay: Inhibition of human lysosomal alpha glucosidase assessed as release of p-nitrophenol at 1000 uM using p-nitrophenyl glycoside as substrate by spectrometric assay relative to control
[11] = biological target: Alpha-galactosidase (Coffea arabica) (UniProt Q42656); assay: Inhibition of coffee beans alpha-galactosidase assessed as release of p-nitrophenol at 1000 uM using p-nitrophenyl glycoside as substrate by spectrometric assay relative to control
Alpha-galactosidase (Coffea arabica), sequence (Q42656 16-378 limits assumed): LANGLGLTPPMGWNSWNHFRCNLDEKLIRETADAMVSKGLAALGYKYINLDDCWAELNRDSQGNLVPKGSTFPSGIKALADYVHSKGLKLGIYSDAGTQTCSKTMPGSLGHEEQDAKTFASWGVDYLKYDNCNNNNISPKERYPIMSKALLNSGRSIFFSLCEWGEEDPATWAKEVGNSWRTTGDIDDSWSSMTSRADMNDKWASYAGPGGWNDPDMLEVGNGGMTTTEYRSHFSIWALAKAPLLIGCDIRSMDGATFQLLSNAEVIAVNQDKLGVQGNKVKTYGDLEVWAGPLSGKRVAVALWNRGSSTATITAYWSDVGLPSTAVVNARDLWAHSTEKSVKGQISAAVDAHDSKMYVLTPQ

Row | Compound | inhibition (Bos taurus [1]) | IC50 [2] | IC50 [3] | inhibition (Rattus norvegicus) | inhibition [4] | IC50 [5] | IC50 [6] | inhibition (Helix pomatia) | inhibition (Sus scrofa) | inhibition (Escherichia coli) | inhibition (Bos taurus [7]) | inhibition (Prunus dulcis) | inhibition (Bos taurus [8]) | inhibition [9] | inhibition (Aspergillus niger) | inhibition (Penicillium decumbens) | inhibition (Oryza sativa) | inhibition [10] | inhibition [11]
1 | OC[C@]1(c2cccc(F)c2)NC[C@H](O)[C@H]1O | 16.4% | 491 µM | 0.95 µM | 10% | 0% | 60 µM | 817 µM | 0% | 8.3% | 0% | 11.3% | 0% | 19.4% | 0% | 1.4% | 0% |  |  | 
2 | COc1ccc([C@]2(CO)NC[C@@H](O)[C@@H]2O)cc1OC | 24.3% |  | 4.1 µM | 0% | 0% | 243 µM |  | 0% | 0.8% | 0% | 22.2% | 0% | 17.5% | 0% | 0.5% | 0% | 11.4% | 11.1% | 0%
3 | COc1ccc([C@@]2(CO)NC[C@H](O)[C@H]2O)cc1OC | 19% |  | 2.5 µM | 0% | 0% | 64 µM |  | 0% | 0% | 0% | 15.8% | 0% | 23.3% | 0.5% | 6.4% | 0% | 32.3% | 27.1% | 0%
4 | COc1cccc([C@@]2(CO)NC[C@H](O)[C@H]2O)c1 | 26.5% |  | 2.2 µM | 0.6% | 0% | 19 µM |  | 0% | 3.8% | 0% | 12.8% | 1.7% | 8.2% | 1.6% | 5% | 5.5% | 47.3% | 46% | 1.6%
5 | OC[C@]1(c2ccc(O)cc2)NC[C@H](O)[C@H]1O | 40.3% | 376 µM | 0.18 µM | 1.2% | 3.4% | 12 µM | 285 µM | 0% | 12.9% | 1.8% | 27.6% | 14.8% | 12.6% | 0% | 11.5% | 4.5% |  |  | 3.6%
6 | COc1cccc([C@]2(CO)NC[C@@H](O)[C@@H]2O)c1 | 38.9% | 776 µM | 1.7 µM | 0% | 0% | 9.8 µM | 758 µM | 0% | 12.9% | 0% | 30% | 7.8% | 10.7% | 0% | 8.3% | 0% |  |  | 1.6%
7 | OC[C@@]1(c2c(F)c(F)c(F)c(F)c2F)NC[C@@H](O)[C@@H]1O | 38.1% |  | 2.5 µM | 14.1% | 0% | 388 µM |  | 0% | 0% | 0% | 33% | 5.2% | 18.4% | 3.8% | 7.8% | 0% | 19.5% | 18.5% | 0%
8 | OC[C@@H]1NC[C@H](O)[C@H]1O |  |  |  |  |  |  |  |  |  |  | < 50% | < 50% |  |  |  |  |  |  | 
9 | Cc1ccc([C@]2(CO)NC[C@@H](O)[C@@H]2O)cc1 | 35% |  | 3.4 µM | 12.9% | 0% | 212 µM |  | 0% | 0% | 0% | 29.1% | 8.7% | 8.7% | 0% | 8.3% | 7.4% | 29.1% | 21.3% | 1.6%
10 | OC[C@]1(c2c(F)c(F)c(F)c(F)c2F)NC[C@H](O)[C@H]1O | 3.7% |  | 4.1 µM | 40.2% | 6.6% | 528 µM |  | 0% | 2% | 2.6% | 3.8% | 4.6% | 3.6% | 0% | 4.4% | 2% | 0% | 6.9% | 
11 | OC[C@@]1(c2ccc(F)cc2)NC[C@@H](O)[C@@H]1O | 8.6% | 714 µM | 0.2 µM | 25.8% | 6.6% | 70 µM | 646 µM | 0.8% | 4.4% | 1.5% | 8.4% | 0.6% | 16.8% | 0% | 0% | 0% |  |  | 0%
12 | OC[C@]1(c2ccc(F)cc2)NC[C@H](O)[C@H]1O | 0% |  | 2.8 µM | 27% | 6.6% | 305 µM |  | 0% | 4% | 3% | 0.4% | 4.6% | 10.9% | 0% | 0% | 0% | 6.4% | 8.3% | 0%
